Measured values: article PMC8010149, “A Therapeutic Strategy to Combat HIV-1 Latently Infected Cells With a Combination of Latency-Reversing Agents Containing DAG-Lactone PKC Activators” (Frontiers in Microbiology, 2021)

What was measured:
[1] = system: HIV-1 latently infected U1 cells; test: HIV-1 latency reversal, p24 antigen in supernatant, U1 cells; assay type: cell-based; conditions: Human immunodeficiency virus 1, 48 h
Procedure: The reactivation of HIV-1 from latently infected cells was determined by intracellular p24 protein expression and quantification of p24 antigen in the supernatant (ACH-2 and U1 cells), or by changes in intracellular green fluorescent protein (GFP) expression (J-Lat 10.6 cells). J-Lat ([Jordan et al., 2003]), ACH-2, or U1 cells (5 × 10^5 cells/ml) were seeded in 96-well plates and incubated with different drug concentrations for 24 h to collect the cells. The supernatant was collected after 48 h. The increase in supernatant p24 antigen levels was measured using a Lumipulse G1200 (FUJIREBIO, Tokyo, Japan). J-Lat cells (5 × 10^5 cells/ml) were placed in 48-well plates and incubated with different drug concentrations for 24 h. Intracellular p24 protein expression and GFP-positive cells were analyzed by flow cytometry.

[2] = system: PBMCs from healthy donors; test: Acute cytotoxicity in primary cells (fixable viability dye, flow cytometry); assay type: cell-based
Procedure: For T cell activation and exhaustion marker staining, PBMCs from healthy donors separated by the above density gradient centrifugation method were incubated with fixable viability stain Ghost Dye 780 (TONBO Biosciences) for 30 min on ice. […] Next, the cells were analyzed using BD FACSVerse (BD Biosciences). In the analysis, unstained cells were used as a negative control to set the gating for each experiment. The collected data were analyzed using FlowJo software (Tree Star, San Carlos, CA, United States).
The ratio of living cells was calculated for fixable viability dye negative cell populations by flow cytometry. Data are shown as means ± SDs of three independent experiments.

## CCCC(CCC)C(=O)OCC1(CO)CC(=C(C)C)C(=O)O1 (stereo not drawn) [YSE028]
[1]
  EC50: 1.81 µM
[2]; YSE028 10 μM with JQ1 1 μM, Supplementary Figure S3A
  toxicity of LRAs in combination in primary cells: did not cause increased toxicity in combination
[2]; up to 100 μM, 24 h
  acute toxicity in primary cells: did not show acute toxicity
